According to patent US10300070B2, “Metabolically-activated drug conjugates to overcome resistance in cancer therapy” (The Brigham and Women's Hospital, Inc., priority 2014, dated 2019):

B1: IL-23: recombinant cytokine purchased from Biolegend (protein, UniProt Q9NPF7 20-189; P29460 23-328, looked up)
Interleukin-23 subunit alpha: RAVPGGSSPAWTQCQQLSQKLCTLAWSAHPLVGHMDLREEGDEETTNDVPHIQCGDGCDPQGLRDNSQFCLQRIHQGLIFYEKLLGSDIFTGEPSLLPDSPVGQLHASLLGLSQLLQPEGHHWETQQIPSLSPSQPWQRLLLRFKILRSLQAFVAVAARVFAHGAATLSP
Interleukin-12 subunit beta: IWELKKDVYVVELDWYPDAPGEMVVLTCDTPEEDGITWTLDQSSEVLGSGKTLTIQVKEFGDAGQYTCHKGGEVLSHSLLLLHKKEDGIWSTDILKDQKEPKNKTFLRCEAKNYSGRFTCWWLTTISTDLTFSVKSSRGSSDPQGVTCGAATLSAERVRGDNKEYEYSVECQEDSACPAAEESLPIEVMVDAVHKLKYENYTSSFFIRDIIKPDPPKNLQLKPLKNSRQVEVSWEYPDTWSTPHSYFSLTFCVQVQGKSKREKKDRVFTDKTSATVICRKNASISVRAQDRYYSSSWSEWASVPCS

Assays:
Type in all cases: cell-based
MDA-MB-231 parent or DTC [1] = test: Glucose uptake (2-NBDG) determined by FACS; conditions: for suppression of glucose consumption (2-NBDG uptake): incubation 3 h, DTC compared to drug naïve parent cells; for 2-NBDG uptake after exogenously-added cytokines: MDA-MB-231 parent cells, 24 hours incubation, 50 ng/ml
Description: (§1) MDA-MB-231 (ATCC), MDA-MB-468 and 4T-1 mammary carcinoma cells (ATCC) were cultured in DMEM containing 10% Fetal Bovine Serum (FBS) at 37 C and 5% CO2. DU145 and DU145-TxR were provided by A. Mizokami^63 and cultured in DMEM containing 10% FBS, resistant line included 100 nM paclitaxel in the culture media. During treatments with chemotherapeutics, cells were grown to semi-confluence and treated with indicated concentrations of chemotherapy in serum-containing medium for indicated time points. When small molecule inhibitors were included in treatments, they were added simultaneously with chemotherapy. For siRNA gene knockdown, cells were transfected with silencer-select siRNA plasmids (Ambion, Invitrogen, Grand Island, N.Y.) pan-CD44(1) (s2682) panCD44(2) (s2681), siHIF1A (s6539) using lipofectamine 2000 (Invitrogen, Carlsbad Calif.) following manufacturer protocol and cultured for 72 hours prior to treatment. Scrambled siRNA was used as a control. For chemotherapy treatment experiments: Cancer cells were plated at a density of 0.5-1×10^5 cells/ml and allowed to adhere for 24-48 hr. When cells reached ˜70% confluency they were treated with cytotoxics at indicated concentrations for 24-48 hours and utilized for subsequent assays. For experiments in which a shorter incubation was used (i.e. 15 min-4 hours) fresh media was added 24 hours prior to addition of chemotherapy suspended to stock concentration in PBS. For generation of DTC: Cells were treated for 48 hours with chemotherapy. Following washes with PBS, adherent cells were trypsinized and re-plated at a density of 1.5-2×10^5 cells/ml and cultured in serum-containing medium. After 24 hours incubation, floating cells were removed and remaining cells were washed with 1× PBS and considered as chemotherapy-tolerant cells. A population of drug naïve parent cells were always cultured alongside DTC and fresh media was added at every interval that experimental population (DTC) received fresh media.
In vitro detection of glucose uptake was performed using 2-(N-7-Nitrobenz-2-oxa-1,3-diazol-4-yl)Amino)-2-Deoxyglucose (2-NBDG) (Invitrogen, Carlsbad Calif.), dissolved in DMSO to 50 mM. Cells were pre-treated with kinase inhibitors or vehicle for 3 hours in glucose- and phenol red-free media before addition of 50 μM 2-NBDG and subsequently read by FACS ex/em 488/535 nm. ROS was determined by pre-loading cells with CM-DCFDA (1 μM), washed 2 times with PBS and subsequently treated with H2O2 or vehicle; when kinase inhibitors were included in treatment, cells were first incubated with inhibitor for 3 hours prior to CM-DCFDA loading. Fluorescence was then determined by FACS ex/em 488/535 nm. For the following assays, cells were trypsinized and counted by Nexcelom cell counter (Lawrence, Mass.) prior to being subjected to analysis in order to achieve a quantitative value per cell: Reduced glutathione was determined using a colorimetric glutathione recycling system by DTNB following manufacturer protocol (Biovision, Milpitas Calif.). ATP analysis was performed using the ATP colorimetric analysis kit (Biovision) according to manufacturer protocol. Reductive stress was detected using the Enzo nitroreductase hypoxia kit (Enzo Life Sciences, Ann Arbor Mich.) following manufacturer protocol and visualized by fluorescent microscopy; a set of non-docetaxel-treated control cells loaded with fluorescent probe were compared against docetaxel-treated cells to derive a % redox stress increase which was calculated as fluorescence intensity of nitroreductase probe per cell and expressed as increase from vehicle. Protein synthesis was measured by two means 1. L-azidohomoalanine amino acid analog of methionine containing an azide moiety was added to cultured cells (parent or DTC) for 3 hours which is incorporated into proteins during active protein synthesis. […]

MDA-MB-231 parent or DTC [2] = test: Cell viability (MTS) and trypan blue exclusion of parent or DTC treated with doxorubicin
Description: as §1
Following drug incubation, cells were washed and suspended in phenol red-free RPMI or DMEM and subsequently treated with MTS reagent using manufacturer protocol (Promega, Madison, Wis.). Trypan blue exclusion was used to validate experiments and evaluate % of dead cells performed by bright field microscopy.

CD44 = test: Cell surface CD44 expression by FACS; conditions: for CD44 expression after exogenous cytokine: MDA-MB-231, within 4 hours
Description: DU145 and DU145-TxR were provided by A. Mizokami^63 and cultured in DMEM containing 10% FBS, resistant line included 100 nM paclitaxel in the culture media. During treatments with chemotherapeutics, cells were grown to semi-confluence and treated with indicated concentrations of chemotherapy in serum-containing medium for indicated time points. When small molecule inhibitors were included in treatments, they were added simultaneously with chemotherapy. […] Scrambled siRNA was used as a control. For chemotherapy treatment experiments: Cancer cells were plated at a density of 0.5-1×10^5 cells/ml and allowed to adhere for 24-48 hr. […] Following washes with PBS, adherent cells were trypsinized and re-plated at a density of 1.5-2×10^5 cells/ml and cultured in serum-containing medium. […] A population of drug naïve parent cells were always cultured alongside DTC and fresh media was added at every interval that experimental population (DTC) received fresh media.
Cells were cultured as indicated, removed from culture dishes with accutase stem-pro dissociation reagent (Invitrogen, Carlsbad Calif.) and fixed with 4% paraformaldehyde in PBS for 30 min at RT, washed twice with PBS and blocked in 10% goat serum (v/v). Whenever necessary, cells were permeabilized with 0.05% saponin in PBS. Cells were incubated with CD44-APC (BD biosciences, San Jose, Calif.) overnight at 4 C and analyzed by FACS (C6 Accuri cyomteters Inc Ann Arbor, Mich.), data analysis using FlowJo software (Tree Star Inc., Ashland Oreg.) and Accuri cFlow plus software to obtain and confirm mean fluorescent intensity (GNU.org).

DTC = test: Total intracellular reduced glutathione (GSH) in drug tolerant cells; conditions: acute (3 hours) exposure; ML-265 10 μM, catalase 2000 U/ml
Description: In vitro detection of glucose uptake was performed using 2-(N-7-Nitrobenz-2-oxa-1,3-diazol-4-yl)Amino)-2-Deoxyglucose (2-NBDG) (Invitrogen, Carlsbad Calif.), dissolved in DMSO to 50 mM. Cells were pre-treated with kinase inhibitors or vehicle for 3 hours in glucose- and phenol red-free media before addition of 50 μM 2-NBDG and subsequently read by FACS ex/em 488/535 nm. ROS was determined by pre-loading cells with CM-DCFDA (1 μM), washed 2 times with PBS and subsequently treated with H2O2 or vehicle; when kinase inhibitors were included in treatment, cells were first incubated with inhibitor for 3 hours prior to CM-DCFDA loading. Fluorescence was then determined by FACS ex/em 488/535 nm. For the following assays, cells were trypsinized and counted by Nexcelom cell counter (Lawrence, Mass.) prior to being subjected to analysis in order to achieve a quantitative value per cell: Reduced glutathione was determined using a colorimetric glutathione recycling system by DTNB following manufacturer protocol (Biovision, Milpitas Calif.). […] Protein synthesis was measured by two means 1. […] Fluorescence was detected by FACS as described below. […] GFP protein translation was determined by fluorescent microscopy. […] Individual cells were evaluated for fluorescent intensity of caspase-3 activity (red signal intensity) and green fluorescent protein intensity. […]

| Molecule | 2-NBDG uptake after exogenously-added cytokines (MDA-MB-231 parent or DTC [1]) | CD44 expression after exogenous cytokine (CD44) | other results |
| --- | --- | --- | --- |
| Oc1cccc(-c2nc(N3CCOCC3)c3oc4ncccc4c3n2)c1 [PI103, 3-(4-(4-Morpholinyl)pyrido[3′,2′:4,5]furo[3,2-d]pyrimidin-2-yl)phenol] | – | – | suppression of glucose consumption (2-NBDG uptake) (MDA-MB-231 parent or DTC [1]): greater suppression of glucose consumption in the DTC subset compared to drug naïve parent cells; response to dox in combination with inhibitor, DTC (MDA-MB-231 parent or DTC [2]; DTC, co-incubated with dox, 48 h, PI103 5 μM, lonidamine 10 μM, KB-458 and KB-697 10 μM): exquisitely responsive, overtly driven to cell death by dox in combination; response to dox in combination with inhibitor, parent cells (MDA-MB-231 parent or DTC [2]; drug naïve parent cells, co-incubated with dox, 48 h): little synergism or a reversion of synergy |
| COc1cccc2c1C(=O)c1c(O)c3c(c(O)c1C2=O)C[C@@](O)(C(=O)CO)C[C@@H]3O[C@H]1C[C@H](N)[C@H](O)[C@H](C)O1 [doxorubicin, (1S,3S)-3-Glycoloyl-3,5,12-trihydroxy-10-methoxy-6,11-dioxo-1,2,3,4,6,11-hexahydro-1-tetracenyl 3-amino-2,3,6-trideoxy-α-L-lyxo-hexopyranoside] | – | – | response of DTC to doxorubicin (trypan blue exclusion) (MDA-MB-231 parent or DTC [2]; 72 h, DTC vs parent): DTC developed resistance; doxorubicin-mediated toxicity with PPP intermediates (MDA-MB-231 parent or DTC [2]; drug naïve parent cells co-treated with exogenous NADPH, GSH or ectopic G6PD expression): reduction of doxorubicin-mediated toxicity |
| CO[C@H]1C[C@@H]2CC[C@@H](C)[C@@](O)(O2)C(=O)C(=O)N2CCCC[C@H]2C(=O)O[C@H]([C@H](C)C[C@@H]2CC[C@@H](OCCO)[C@H](OC)C2)CC(=O)[C@H](C)/C=C(\C)[C@@H](O)[C@@H](OC)C(=O)[C@H](C)C[C@H](C)/C=C/C=C/C=C/1C [Everolimus, 40-O-(2-hydroxyethyl)-rapamycin] | – | – | suppression of glucose consumption (2-NBDG uptake) (MDA-MB-231 parent or DTC [1]): greater suppression of glucose consumption in the DTC subset compared to drug naïve parent cells |
| IFN-γ: recombinant cytokine purchased from Biolegend | didn't observe any alterations in 2-NBDG uptake | able to independently drive CD44 expression in a dose-dependent manner | – |
| IL-6: recombinant cytokine purchased from Biolegend | didn't observe any alterations in 2-NBDG uptake | – | – |
| IL-8: recombinant cytokine purchased from Biolegend | didn't observe any alterations in 2-NBDG uptake | – | – |
| GM-CSF: recombinant cytokine purchased from Biolegend | didn't observe any alterations in 2-NBDG uptake | able to independently drive CD44 expression in a dose-dependent manner | – |
| Cc1ccc(S(=O)(=O)/C=C/C#N)cc1 [Bay-11] | – | – | chemotherapy early-induced CD44 expression (CD44; DTX 25 nM, 4 h, Bay-11 10 μM, neutralizing antibodies 2 μg/ml): modulated chemotherapy early-induced CD44 expression |
| Cn1c2cc([S+](C)[O-])sc2c2cnn(Cc3cccc(N)c3)c(=O)c21 (stereo not shown) [ML-265] | – | – | total levels of reduced glutathione (GSH) in DTC (DTC): diminished total levels of reduced glutathione in DTC |
| B1 | didn't observe any alterations in 2-NBDG uptake | able to independently drive CD44 expression in a dose-dependent manner | – |
